Experiments:
Canton G6PD = molecular target: T1, Canton G6PD (Homo sapiens, UniProt P11413, R459L); assay: In vitro proteolysis assay with chymotrypsin; conditions: in the presence of AG1, 25% in its absence
T1 construct: His (pET-28a) (N, cleaved yes); made in house; host or cells: E. coli C43 (DE3)
Experimental: 200 ng of recombinant enzymes were incubated with 1 μL of 10 ng/μL chymotrypsin for 1 hour at room temperature. 100 μM of the compound was added to some reaction conditions. The following protein level was examined by Western blot.

[1] = molecular target: glyceraldehyde 3-phosphate dehydrogenase (GAPDH) (Homo sapiens, UniProt P04406); assay: Selectivity: dimerization or activity of other NAD/NADP+-dependent enzymes; assay type: biochemical
[2] = molecular target: aldehyde dehydrogenase 3A1 (ALDH3A1) (Homo sapiens, UniProt P30838); assay: as above; assay type: biochemical
[3] = molecular target: T2, G6PD in fibroblast cells carrying Mediterranean variant (Homo sapiens, UniProt P11413, S188F); assay: Cycloheximide chase in fibroblasts; assay type: cell-based; conditions: cycloheximide treatment
T2 construct: host or cells: subject-derived fibroblast cell line
Experimental: Lymphocytes derived from a normal subject (HG 00866) and a G6PD-deficient subject carrying Canton variant in G6PD (HG 02367) were purchased from Coriell Institute and cultured in RPMI 1640 supplemented with 15% fetal bovine serum (FBS), 100 U/ml penicillin, and 100 μg/ml streptomycin. An SH-SY5Y neuroblastoma cell line was cultured in Dulbecco's Modification of Eagle's Medium/Ham's F-12 50/50 Mix supplemented with 10% FBS, 100 U/ml penicillin, and 100 μg/ml streptomycin. A G6PD-deficient subject-derived fibroblast cell line carrying Mediterranean variant and normal fibroblast cell line as control were purchased from Coriell Institute (GM 01152) and ThermoFisher Scientific (C0135C), respectively, and cultured in minimum essential medium supplemented with 15% FBS, 100 U/ml penicillin, and 100 μg/ml streptomycin. All the cell lines were maintained at 37° C. in a humidified incubator with an atmosphere of 5% of CO2 and 95% air.
50,000 cells (SH-SH5Y cells or fibroblast cells) or 100,000 cells (lymphocytes) were seeded in a 12-well plate and incubated overnight. The cells were subjected to serum starvation (50-75%) for 48 hours and treated with 50 μg/ml of cycloheximide at different time points (0-48 hours). The cells were treated with the compound (1 μM) for 48 hours together with cycloheximide. […]

[4] = test system: fibroblasts with the Mediterranean variant; assay: Viability of fibroblasts, with and without siRNA knockdown; assay type: cell-based, human
Experimental: Cell viability was measured using a Cell-Counting Kit-8 (CCK-8, Dojindo), utilizing WST-8 [2-(2-methoxy-4-nitrophenyl)-3-(4-nitrophenyl)-5-(2,4-disulfophenyl)-2H-tetrazolium monosodium salt, according to the manufacturer's instructions. Cells were subjected to serum starvation for 48 hours before measurement. Cells in 100 μL of medium per well were treated with 10 μL of CCK-8 solution and incubated for 2 hours at 37° C. The absorbance was read at 450 nm. Viability of lymphocytes was measured by staining with a 0.4% solution of trypan blue in buffered isotonic salt solution (pH 7.2). The viability was calculated as the number of viable cells (non-stained by the dye) divided by the total number of cells within the grids on the hemacytometer. Cells were treated with 1 μM of the compound 24 hours before the measurement.
Endogenous G6PD was knocked down in each cell line as follows; 2 pmol of siRNA G6PD (Santa Cruz Biotechnology) and 0.5 μg lipofectamine (Invitrogen) were diluted in 10 μL of Opti-MEM medium respectively and incubated for 5 minutes. The diluted siRNA was combined with diluted lipofectamine, which was followed by additional incubation for 20 minutes prior to the addition to cells in a 96-well plate.

zebrafish embryos = assay: Pericardial edema in zebrafish embryos; assay type: in vivo
Experimental: Embryos were dechorinated with pronase at 24 hours post fertilization (hpf) and treated with 50 μg/ml of chloroquine and/or AG1 by directly adding the compounds to the well. For ROS measurements, embryos were incubated with compounds for 2 hours, and then the ROS detecting reagent (CM-H2DCFDA) was added at a final concentration of 500 ng/ml to the well for a total treatment time of 5 hours. One embryo was placed to each well of a black, opaque 96-well plate. The florescence was analyzed with excitation/emission at 485/525 nm. After ROS assays, embryos at about 32 hpf were pooled and lysed in buffer containing 50 mM Tris (pH 7.4), 150 mM NaCl, 1 mM EDTA, 0.1% NP-40, and protease inhibitor cocktail, which was followed by three cycles of freeze and thawing in liquid nitrogen. The lysate was centrifuged at 14,000 rpm at 4° C. for 15 minutes. Total protein concentration in the supernatants (total lysate) was determined by Bradford method. 50 μg of total lysate was loaded onto 10% SDS-PAGE gels and the protein level was examined by Western blot using anti-G6PD antibody (Abcam (G6PD: AB87230)). 10 μg of total lysate was used for enzymatic assay. 50 μg of the lysate was used to measure NADPH levels using a NADPH quantification kit (Biovision), according to the manufacturer's instructions.
Live embryos were anesthetized and mounted in 3% methylcellulose. Embryos were imaged with a Leica M205FA microscope equipped with a 1.0× Plan Apochromatic objective and a SPOT Flex camera or a Leica DM4500B compound microscope equipped with a QImaging Retiga-SRV camera. For hemoglobin staining, fixed embryos were stained with o-dianisidine as previously reported (10), cleared, mounted in 100% glycerol, and imaged with a Leica M205FA microscope equipped with a 1.0× Plan Apochromatic objective and a SPOT Flex camera. All images were captured using SPOT or MetaMorph imaging software (Diagnostic Imaging Inc.) and processed in Photoshop (Adobe). Adjustments were limited to brightness levels and cropping. Analysis was carried out by an observer blinded to the experimental conditions.

T2 sequence (P11413 2-515 S188F limits assumed): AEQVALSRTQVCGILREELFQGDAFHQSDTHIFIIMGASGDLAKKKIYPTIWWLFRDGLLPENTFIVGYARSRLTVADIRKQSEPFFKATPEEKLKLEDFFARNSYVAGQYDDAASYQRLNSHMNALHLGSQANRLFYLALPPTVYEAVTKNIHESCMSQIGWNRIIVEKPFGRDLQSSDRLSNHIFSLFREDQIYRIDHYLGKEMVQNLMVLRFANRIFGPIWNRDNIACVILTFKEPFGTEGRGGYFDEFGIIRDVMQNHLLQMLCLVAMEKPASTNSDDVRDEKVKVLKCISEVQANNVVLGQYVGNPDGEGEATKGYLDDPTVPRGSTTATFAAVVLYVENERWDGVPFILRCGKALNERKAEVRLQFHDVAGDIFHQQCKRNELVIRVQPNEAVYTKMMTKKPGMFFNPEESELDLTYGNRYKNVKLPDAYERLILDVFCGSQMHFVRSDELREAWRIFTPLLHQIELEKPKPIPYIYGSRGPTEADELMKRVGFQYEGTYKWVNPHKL
Chain of glyceraldehyde 3-phosphate dehydrogenase (GAPDH) (P04406 whole entry, species assumed): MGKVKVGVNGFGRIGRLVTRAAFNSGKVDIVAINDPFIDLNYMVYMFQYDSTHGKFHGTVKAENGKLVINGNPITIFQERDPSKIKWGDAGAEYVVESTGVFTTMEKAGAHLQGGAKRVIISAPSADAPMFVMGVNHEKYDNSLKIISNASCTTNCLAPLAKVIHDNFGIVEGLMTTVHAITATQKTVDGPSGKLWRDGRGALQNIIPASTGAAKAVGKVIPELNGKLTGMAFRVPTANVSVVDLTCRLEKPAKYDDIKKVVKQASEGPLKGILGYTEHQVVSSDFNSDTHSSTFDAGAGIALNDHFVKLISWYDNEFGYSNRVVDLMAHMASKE
T1 sequence (P11413 whole entry R459L): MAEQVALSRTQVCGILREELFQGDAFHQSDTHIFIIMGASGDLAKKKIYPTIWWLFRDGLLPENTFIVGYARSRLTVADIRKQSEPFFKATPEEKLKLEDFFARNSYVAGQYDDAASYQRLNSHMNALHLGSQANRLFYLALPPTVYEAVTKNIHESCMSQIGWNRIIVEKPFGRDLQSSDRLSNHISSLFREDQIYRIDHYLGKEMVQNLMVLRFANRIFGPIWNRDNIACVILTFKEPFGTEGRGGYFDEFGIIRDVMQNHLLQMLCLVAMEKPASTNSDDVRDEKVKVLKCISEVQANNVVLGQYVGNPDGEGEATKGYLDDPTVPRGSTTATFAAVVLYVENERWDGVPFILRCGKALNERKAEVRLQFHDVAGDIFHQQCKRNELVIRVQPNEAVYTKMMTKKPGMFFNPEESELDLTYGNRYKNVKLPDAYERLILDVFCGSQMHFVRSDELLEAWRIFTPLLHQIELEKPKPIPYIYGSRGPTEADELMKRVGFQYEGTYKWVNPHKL
Chain of aldehyde dehydrogenase 3A1 (ALDH3A1) (P30838 whole entry, species assumed): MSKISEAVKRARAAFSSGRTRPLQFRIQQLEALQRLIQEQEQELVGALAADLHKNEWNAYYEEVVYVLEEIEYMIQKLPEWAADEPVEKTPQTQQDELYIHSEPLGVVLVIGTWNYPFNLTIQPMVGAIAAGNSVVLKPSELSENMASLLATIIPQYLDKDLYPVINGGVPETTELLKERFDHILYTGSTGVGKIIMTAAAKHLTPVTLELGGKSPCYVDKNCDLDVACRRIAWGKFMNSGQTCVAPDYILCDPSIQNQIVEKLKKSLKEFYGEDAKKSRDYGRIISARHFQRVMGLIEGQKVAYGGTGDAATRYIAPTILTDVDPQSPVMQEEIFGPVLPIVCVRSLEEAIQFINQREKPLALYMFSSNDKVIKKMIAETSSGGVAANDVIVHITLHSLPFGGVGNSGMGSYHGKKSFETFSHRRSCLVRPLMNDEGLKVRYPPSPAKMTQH

With `SCCNCCc1c[nH]c2ccccc12` [AG1, 2-[2-(1H-indol-3-yl)ethylamino]ethanethiol] as the compound, how does the “protein remaining after proteolysis” value (Canton G6PD) read?
Its value is 50%.

And the “effect on dimerization or activity” value [1]?
The value was “no effect”.

And the “effect on dimerization or activity” value [2]?
Its value is “no effect”.

And the “stability of G6PD” value [3]?
Its value is “stabilized”.

What about the rescue of viability ([4]; Mediterranean G6PD expression knocked down by siRNA) of the same compound?
The rescue of viability was “did not rescue”.

What about the improvement of viability ([4]; stress conditions) of the same compound?
Its improvement of viability is 22%.

What about the “embryos exhibiting pericardial edema” value (zebrafish embryos; chloroquine 50 μg/ml) of the same compound?
The value was “less embryos exhibiting pericardial edema”.

And the “pericardial edema due to mesoderm defects” value (zebrafish embryos; tbx16 mutants)?
The value was “not corrected”.

Reference: patent publication US20200223826A1, “Glucose-6-Phosphate Dehydrogenase (G6PD)-Modulating Agents And Methods Of Treating G6PD Deficiency” (The Board of Trustees of the Leland Stanford Junior …, priority 2017, published 2020)
